pIC50: −log10 of the molar value. Entries after “also recorded” stand apart in the source; their conditions may differ. Each block holds one compound with its values, some of them ahead of it.
Columns and labels:
[1] = test system: LPS-stimulated human monocytes; assay: Human monocyte cytokine secretion assay (LPS); type: cell-based; conditions: range over the three cytokines and both compounds, read-out: potencies for reducing secretion of IL-1β, TNF-α and IL-9
Method: Peripheral blood from healthy human volunteers was collected and the monocytes isolated via Ficoll-paque density centrifugation. […] The cells were allowed to pre-incubate with test compound at the indicated concentration for 30 minutes (37° C., 5% CO2, humidified air); after which the supernatant was removed and media containing compound and 1 ng/mL LPS was added. Cells were allowed to incubate with compounds and LPS for 4 hours at 37° C. after which the supernatant was removed and stored at −80° C. Cytokine concentrations in the supernatant were determined using commercially available Bio-Rad Bio-plex™ kits according the manufacturer's instructions.

ERK2 = target: T1, ERK2 (Homo sapiens, UniProt P28482); assay: Kinase panel screen (KinaseProfiler), ERK2; type: biochemical; conditions: 10 μM ATP
T1 construct: purchased Upstate, Millipore Bioscience Division (KinaseProfiler service)
T1 sequence (P28482 whole entry): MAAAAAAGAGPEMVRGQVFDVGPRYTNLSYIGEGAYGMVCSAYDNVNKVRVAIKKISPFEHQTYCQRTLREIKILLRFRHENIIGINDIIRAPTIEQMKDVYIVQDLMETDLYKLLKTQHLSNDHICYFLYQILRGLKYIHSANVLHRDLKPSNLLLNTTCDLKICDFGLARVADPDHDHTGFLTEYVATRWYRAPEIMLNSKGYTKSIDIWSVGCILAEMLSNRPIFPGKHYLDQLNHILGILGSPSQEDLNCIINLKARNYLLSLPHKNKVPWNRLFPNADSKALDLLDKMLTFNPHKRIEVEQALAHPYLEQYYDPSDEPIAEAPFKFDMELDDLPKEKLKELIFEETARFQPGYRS
Method: Compounds of Formulae I and II were examined for activity against a selected panel of kinases using the KinaseProfiler™ enzyme profiling services (Upstate, Millipore Bioscience Division). Percent kinase activity at 10 μM and 1 μM test compound and 10 μM ATP was determined against 40 wild-type recombinant human kinases according to Upstate's standard protocol: ASK1, BTK, CSK, c-RAF, GCK, GSK3β, IKKα, IKKβ, IRAK1, IRAK4, JNK1α1, JNK2α2, JNK3, ERK1, ERK2, MAPKAP-K2, MAPKAP-K3, MEK1, MKK4, MKK6, MKK7β, Mnk2, MSK1, PAK3, PDK1, PRAK, ROCK1, Rsk2, SAPK2a, SAPK2b, SAPK3, SAPK4, SRPK1, SRPK2, Syk, TAK1, TBK1, PI3-Kβ, PI3-Kγ, PI3-Kδ.

LPS-challenged mice = assay: LPS-induced neutrophilia and cytokine production assay; type: in vivo, mouse; conditions: for IL-1β levels in BALF: intratracheal administration, LPS-challenged mice
[2] = test system: ova-sensitized, ova-challenged mice; assay: Mouse ovalbumin sensitization model, anti-inflammatory dosing: BALF eosinophils and cytokines; type: in vivo; conditions: for Airway eosinophil infiltration (eosinophils per ml of BALF): dosed orally to day 31, anti-inflammatory dosing paradigm
[3] = Rat oral pharmacokinetics (plasma); type: in vivo; conditions: 20-30 μmol/kg, mean n = 3
Method: Plasma (EDTA K2 anticoagulant) was collected from male, cannulated, CD Sprague Dawley rats to determine the pharmacokinetics of formulations containing compound inhibitors of Rho kinase. Each animal was dosed orally with a 4 ml/kg solution or suspension of each test compound in 10 mM acetate buffered saline, pH 4.5 at a final concentration range of 20-30 μmol/kg. Blood was collected at 0.25, 0.5, 1, 2, 4, 6, 8, and 24 hours. Plasma samples were assayed for the concentration of the test compound using an on-line, solid phase extraction LC/MS/MS analysis system.
Samples were analyzed on a QSTAR Elite, hybrid quadrupole time-of-flight mass spectrometer (Applied Biosystems, Framingham, Mass.) coupled with a Symbiosis Pharma integrated, on-line SPE-HPLC system (Spark Holland Inc., Plainsboro, N.J.). Analyst QS 2.0 software was used for instrument control, data acquisition and processing. […] Mobile Phase A consisted of 0.1% ammonium hydroxide in water and Mobile Phase B consisted of 0.1% formic acid in acetonitrile. Pharmacokinetic analyses were performed using WinNonlin software version 5.2 (Pharsight Corporation, Mountain View, Calif.).
As determined from the plasma concentration versus time curves, the time to peak and peak exposure are represented by the values Tmax and Cmax, respectively. The AUC values (nM*hr) shown were calculated as the areas under the plasma concentration versus time curves from time zero through the time of the last observable value and represent the total exposure of the compound over the course of the study. Half-life values or the amount of time required for the plasma levels of the compound to decline to half the initial value are represented as t½.

[4] = test system: ova-sensitized, ova-challenged mice; assay: Prevention of airway hyperreactivity (Penh, methacholine) in ovalbumin-sensitized mice; type: in vivo, mouse; conditions: for airway hyperreactivity to metacholine: oral 15 μMol/kg once a day during days 27 to 31, tested Day 32
Source text: Airway hyperreactivity is a downstream physiologic effect of inflammation in the mouse ovalbumin sensitization model. The objective of the experiment was to answer whether the decrease in inflammation due to ROCK inhibitor anti-inflammatory dosing results in the prevention of downstream physiological consequences as measured by Penh. […] The anti-inflammatory dosing paradigm consists of dosing the animals once a day starting on day 27 and finishing on either day 30 or 31 (1 hr prior to the aerosolized ovalbumin challenges on days 28 to 30) but not on day 32 when hyperreactivity evaluation occurs. […] Exposure to the methacholine doses consisted of a 3 minute period during which a nebulizer was aerosolizing the methacholine and an additional 3 minute period following the cessation of nebulization. […] Enhanced pause (Penh), a unitless index of airway hyperreactivity, is derived from the expiratory side of the respiratory waveform measured via the plethysmograph and is used as an indirect measure of airway resistance and hyperreactivity. […] Following the methacholine dose response, BALF was collected and all animals were anesthetized, bled and euthanized. […] The Penh value at each of the dose levels of methacholine represents the 6-minute average response. Change from baseline (CFB) in Penh was calculated at each methacholine dose and the area under the curve (AUC) for these CFB values was calculated using the trapezoidal rule. This same approach was applied for each mouse across multiple experiments. […] Data from equal experimental conditions across experiments performed on different days were pooled for statistical analysis and data reporting. […] A random intercept for each experiment was assumed to account for possible similarities of the results obtained from a given experiment (i.e., as a “blocking effect”). […] For FIG. 7, linear AUC values from compound treated mice were reported as a percent of linear AUC values from vehicle-treated ovalbumin-sensitized/ovalbumin-challenged (asthmatic) mice. […]

murine eosinophils = assay: Murine eosinophil chemotaxis (eotaxin); type: cell-based, mouse; conditions: 10 nM eotaxin challenge
Method: These assays are in vitro assays of eosinophil chemotaxis that can be used to evaluate the ability of Rho Kinase inhibitor compounds of Formula I or II to inhibit the migration of eosinophils, an immunomodulatory cell involved in inflammation. Compounds with activity in this assay can be utilized to treat disease associated with an inflammatory response. Mouse Eosinophil Isolation: Bronchoalveolar lavage was collected from ovalbumin sensitized and challenged mice in a volume of 2.5 mL lavage buffer. The lavage buffer was 0.9% saline with 10% fetal bovine serum. The pooled lavages were maintained on ice until use. […] In Vitro Chemotaxis: […]

human eosinophils = assay: Human eosinophil chemotaxis (eotaxin); type: cell-based; conditions: 1 nM eotaxin challenge
Source text: These assays are in vitro assays of eosinophil chemotaxis that can be used to evaluate the ability of Rho Kinase inhibitor compounds of Formula I or II to inhibit the migration of eosinophils, an immunomodulatory cell involved in inflammation. Compounds with activity in this assay can be utilized to treat disease associated with an inflammatory response. Human Eosinophil Isolation: Peripheral blood from healthy human volunteers was collected and the PMNs separated via Ficoll-paque density centrifugation followed by hypotonic lysis of the red blood cells. Subsequently, the human eosinophils were isolated from the cell suspension via StemCell Technologies Human Eosinophil Enrichment kit (Cat. No 19256) according to the manufacturer's recommendations. Briefly, unwanted cells were specifically labeled with dextran-coated magnetic nanoparticles using bispecific Tetrameric Antibody Complexes (TAC) directed against cell surface antigens on human blood cells: […] The unwanted cells are then separated from the unlabelled eosinophils using the EasySep® magnetic isolation procedure. In Vitro Chemotaxis: […]

[5] = 15 μmol/kg/oral on days 27 to 31

SMILES: NC(=O)Cn1ccc2cc(CN3CC[C@@H](Nc4cccc5cnccc45)C3)ccc21 [Compound 2.059, (R)-2-(5-((3-(isoquinolin-5-ylamino)pyrrolidin-1-yl)methyl)-1H-indol-1-yl)acetamide]
pIC50 [1]: 6.00 to 6.77
Percent inhibition ERK2 (ERK2; 1 μM test compound): 56%
IL-1β levels in BALF (LPS-challenged mice): reduction in IL-1β; also recorded: reduction of IL-1β levels

activity at 1 µM (ERK2; 1 μM test compound, read-out: Percent inhibition ERK2): 89%
activity at 10 µM (ERK2; 10 μM test compound, read-out: Percent inhibition ERK2): 60%
SMILES: NC(=O)Cn1ccc2cc(CN3CCC[C@@H](Nc4ccc5[nH]ncc5c4)C3)ccc21 [Compound 1.162, (R)-2-(5-((3-(1H-indazol-5-ylamino)piperidin-1-yl)methyl)-1H-indol-1-yl)acetamide]

SMILES: OCCn1ccc2cc(CN3CC[C@@H](Nc4cccc5cnccc45)C3)ccc21 [Compound 2.066, (R)-2-(5-((3-(isoquinolin-5-ylamino)pyrrolidin-1-yl)methyl)-1H-indol-1-yl)ethanol]
pIC50 [1]: 6.00 to 6.77

SMILES: CS(=O)(=O)Nc1cccc(CN2CCC[C@H](Nc3ccc4[nH]ncc4c3)C2)c1 [Compound 1.091, (S)-N-(3-((3-(1H-indazol-5-ylamino)piperidin-1-yl)methyl)phenyl)methanesulfonamide]
eosinophils in BALF ([2]; dosed i.t. to day 30, anti-inflammatory dosing paradigm): reduction of eosinophils
AUC (0-last) [3]: BLQ
Cmax [3]: BLQ
Tmax [3]: BLQ
t½ [3]: BLQ
airway hyperreactivity ([4]; intratracheal once a day during days 27 to 30): prevention of airway hyperreactivity
IL-1β levels in BALF (LPS-challenged mice): reduction in IL-1β; also recorded: reduction of IL-1β levels
LPS-induced pulmonary neutrophilia influx (LPS-challenged mice; intratracheal dosing one hour prior to LPS challenge): significant reduction; also recorded: dose-dependent inhibition

SMILES: c1cc2cc(CN3CCC[C@@H](Nc4ccc5[nH]ncc5c4)C3)ccc2o1 [Compound 1.131, (R)-N-(1-(benzofuran-5-ylmethyl)piperidin-3-yl)-1H-indazol-5-amine]
Airway eosinophil infiltration (eosinophils per ml of BALF) [2]: reduced
airway hyperreactivity to metacholine [4]: prevention of airway hyperreactivity

SMILES: CS(=O)(=O)Nc1cccc(CN2CC[C@@H](Nc3cccc4cnccc34)C2)c1 [Compound 2.038, (R)-N-(3-((3-(isoquinolin-5-ylamino)pyrrolidin-1-yl)methyl)phenyl)methanesulfonamide]
murine eosinophil chemotactic response (murine eosinophils): inhibited
concentration of Eotaxin in BALF [2, 5]: reduced levels
concentration of IL-5 in BALF [2, 5]: reduced levels
concentration of IL-13 in BALF [2, 5]: reduced levels
Airway eosinophil infiltration (eosinophils per ml of BALF) [2]: reduced
airway hyperreactivity to metacholine [4]: prevention of airway hyperreactivity
human eosinophil chemotactic response (human eosinophils): inhibited

From patent US8207195B2, “Method for treating neurological and neuropathic diseases using rho kinase inhibitor compounds” (priority 2008, dated 2012)
